Data on eleven compounds can be found in ChEMBL document CHEMBL1201862, “PubChem BioAssay data set” (2004).

Common to all, as to assay: NCI anticancer screen, dose series, 48 h
Assay [1] relates to ACHN.
The test system of assay [2] is CAKI-1.
For assay [3], the system named is HCT-116.
Assay [4] deals with HCT-15.
Assay [5] relates to HL-60.
Assay [6] has as its system IGROV-1.
Assay [7] has as its system MOLT-4.
The test system of assay [8] is NCI-H460.
Assay [9] concerns NCI-H522.
For assay [10], the system named is OVCAR-5.
Assay [11] concerns RPMI-8226.
Assay [12] deals with SF-268.
For assay [13], the system named is SK-MEL-5.
Assay [14] concerns SN12C.
For assay [15], the system named is TK-10.
The subject of assay [16] is UACC-257.
For assay [17], the system named is UACC-62.
Assay [18] deals with Hs-578T.
The subject of assay [19] is MDA-MB-231.

SMILES strings stand for the structures.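 Five concentrations, 48 hours, 96-well plates. GI50 marks 50% less growth.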 Activity calls are given as the source filed them. No stated cut-off is given here; in the data, active = GI50 up to about 1.1 µM and inactive = higher.

Regarding `COC(=O)CCC(=O)C(CC(=O)OC)C(=O)CCC(=O)NCCc1ccccc1` (stereo unspecified), the GI50 in assay [1] is > 100 µM (inactive); in assay [2] it was > 100 µM (inactive); in assay [3], > 100 µM (inactive); in assay [4], more than 100 µM; in [5], > 100 µM (inactive); in assay [6], > 100 µM (inactive). Besides, the GI50 in assay [7], in [8], in assay [9], in [10], in assay [11] and in assay [12] was > 100 µM (inactive) throughout. The GI50 in [13], in assay [14], in [15], in assay [16] and in [17] was > 100 µM (inactive) throughout.

In the case of `N=c1n(CC(=O)NC23CC4CC(CC(C4)C2)C3)c2ccccc2n1CC(=O)NC12CC3CC(CC(C3)C1)C2`, the GI50 in [1] is 2 µM (inactive); in assay [2], 12 µM (inactive); in assay [3], 2.03 µM (inactive); in assay [4], 1.9 µM; in assay [5], 2.67 µM (inactive); in [6] it was 1.56 µM (inactive). Further, the GI50 was 2.64 µM (inactive) in assay [7]; 1.78 µM (inactive) in assay [8]; 1.9 µM (inactive) in assay [9]; 1.69 µM (inactive) in assay [10]; 2.21 µM (inactive) in [11]; 1.95 µM (inactive) in assay [12]. The GI50 is 1.82 µM (inactive) in assay [13]; 1.87 µM (inactive) in [14]; 1.66 µM (inactive) in [15]; 1.73 µM (inactive) in assay [16]; 1.96 µM (inactive) in assay [17].

Turning to `CSC(C1c2ccccc2N(C)C2=NC(=O)N(C)C(=O)C21Cl)S(=O)(=O)c1ccc(C)cc1` (stereo unspecified), the GI50 in assay [1] was 50.6 µM (inactive); in [2] it was 24.9 µM (inactive); in assay [3] it was 31.8 µM (inactive); in assay [4] it was 40.9 µM; in assay [5] it was 14.2 µM (inactive); in assay [6], > 100 µM (inactive). Moreover, the GI50 in assay [7] is 17.5 µM (inactive); in assay [8] it was > 100 µM (inactive); in [9] it was 15.7 µM (inactive); in assay [10] it was > 100 µM (inactive); in assay [11] it was 26.2 µM (inactive); in [12], 29.3 µM (inactive). The GI50 in assay [13] is 57.4 µM (inactive); in [14] it was 50.4 µM (inactive); in assay [15], > 100 µM (inactive); in assay [16] it was 79.1 µM (inactive); in assay [17], 91.8 µM (inactive).

Regarding `COc1ccccc1C(=O)c1ccc2ccccc2c1`, the GI50 is 41.2 µM (inactive) in assay [1]; 13.8 µM (inactive) in assay [2]; 39.7 µM (inactive) in assay [3]; 9.55 µM in assay [4]; 3.21 µM (inactive) in [5]; 12.3 µM (inactive) in assay [18]. Further, the GI50 was 11.3 µM (inactive) in assay [6]; 35.8 µM (inactive) in assay [19]; 4.34 µM (inactive) in assay [7]; 15.2 µM (inactive) in assay [8]; 5.85 µM (inactive) in [9]; 64.6 µM (inactive) in [10]. For the same compound, the GI50 in assay [11] is 16.2 µM (inactive); in assay [12], 30.5 µM (inactive); in assay [13], 6.19 µM (inactive); in [14], 28.1 µM (inactive); in [15] it was 17.8 µM (inactive); in assay [16] it was 30.6 µM (inactive). Also, the GI50 in [17] is 7.48 µM (inactive).

For the compound `C/C(=N/NS(=O)(=O)c1ccc(C)cc1)c1cccc[n+]1[O-]`, the GI50 in [1] was > 100 µM (inactive); in assay [2], > 100 µM (inactive); in [3] it was > 100 µM (inactive); in assay [4], more than 100 µM; in assay [5], > 100 µM (inactive); in [6] it was > 100 µM (inactive). Further, the GI50 in [7], in assay [8], in [9], in assay [10], in assay [11] and in assay [12] was > 100 µM (inactive) each time. The GI50 in assay [13], in assay [14], in assay [15], in assay [16] and in [17] was > 100 µM (inactive) each time.

`O=C1/C(=C/c2ccc3c(c2)OCCO3)CCC/C1=C\c1ccc2c(c1)OCCO2`: the GI50 is 39.9 µM (inactive) in assay [1]; 39.3 µM (inactive) in assay [2]; 2.53 µM (inactive) in assay [3]; 24.5 µM in assay [4]; 12.3 µM (inactive) in assay [5]; 32.8 µM (inactive) in assay [6]. Also, the GI50 is 20.5 µM (inactive) in assay [7]; 22.8 µM (inactive) in assay [8]; 35.4 µM (inactive) in assay [9]; 32.9 µM (inactive) in assay [10]; 16.1 µM (inactive) in assay [11]; 26.2 µM (inactive) in [12]. The GI50 in assay [13] is 25.6 µM (inactive); in assay [14], 25.7 µM (inactive); in [15], 36.9 µM (inactive); in assay [16], 20.1 µM (inactive); in [17], 23 µM (inactive).

Take `N#Cc1c(=O)c2ccccc2n2c1[nH]c1ccccc12`: the GI50 was 58.6 µM (inactive) in assay [1]; 35.2 µM (inactive) in [2]; 30.5 µM (inactive) in assay [3]; 17.6 µM in assay [4]; 18.7 µM (inactive) in assay [5]; 20.9 µM (inactive) in [18]. In addition, the GI50 is 16.1 µM (inactive) in assay [6]; 54.6 µM (inactive) in [19]; 12.4 µM (inactive) in [7]; 37 µM (inactive) in assay [8]; > 100 µM (inactive) in [10]; 19.2 µM (inactive) in assay [11]. Also, the GI50 in assay [12] was 31.5 µM (inactive); in assay [14], 32.3 µM (inactive); in assay [15], 49.5 µM (inactive); in assay [16] it was 86.1 µM (inactive); in [17] it was 29.4 µM (inactive).

Turning to `Nc1c(F)c(F)c2c(c1F)N(CCCCCl)c1ccccc1S2`, the GI50 in [1] is > 100 µM (inactive); in assay [2] it was > 100 µM (inactive); in assay [3] it was > 100 µM (inactive); in assay [4], more than 100 µM; in assay [5] it was > 100 µM (inactive); in [18] it was > 100 µM (inactive). Besides, the GI50 in [6], in assay [19], in [7], in [8], in assay [9] and in assay [10] was > 100 µM (inactive) throughout. For the same compound, the GI50 in assay [11], in assay [12], in [13], in assay [14], in assay [15] and in assay [16] was > 100 µM (inactive) throughout. Besides, in [17], the GI50 is > 100 µM (inactive).

As to `CCOC(=O)c1ccc(-n2c(SCC)nc3sc(C)c(C)c3c2=O)cc1`, the GI50 in [1] was > 100 µM (inactive); in [2], > 100 µM (inactive); in assay [3] it was > 100 µM (inactive); in [4], more than 100 µM; in assay [5], > 100 µM (inactive); in [6], > 100 µM (inactive). The GI50 in [7] is > 10 µM (inactive); in assay [8], > 100 µM (inactive); in assay [9], > 100 µM (inactive); in assay [10], > 100 µM (inactive); in assay [11], > 100 µM (inactive); in assay [12], > 100 µM (inactive). For the same compound, the GI50 in assay [13], in assay [14], in assay [15], in assay [16] and in assay [17] was > 100 µM (inactive) in each case.

Regarding `CCCCCCNCCc1c[nH]cn1`, the GI50 in assay [1] was > 100 µM (inactive); in [2], > 100 µM (inactive); in [3], > 100 µM (inactive); in assay [4], more than 100 µM; in assay [18], > 100 µM (inactive); in assay [6], > 100 µM (inactive). The GI50 in assay [19], in assay [7], in assay [8], in assay [9], in assay [10] and in assay [11] was > 100 µM (inactive) throughout. Besides, the GI50 in assay [12], in [13], in assay [14], in [16] and in assay [17] was > 100 µM (inactive) throughout.

On to `COc1ccc(-c2csc(=[N+]3CCCCC3)s2)cc1`, for which the GI50 in assay [1] is 9.44 µM (inactive); in assay [2], 2.36 µM (inactive); in assay [3], 4.42 µM (inactive); in assay [4], 47.3 µM; in assay [5], 2.29 µM (inactive); in assay [6] it was 4.54 µM (inactive). For the same compound, the GI50 in assay [7] was 2.53 µM (inactive); in [8], 3.71 µM (inactive); in assay [9] it was 1.72 µM (inactive); in [10], 8.83 µM (inactive); in assay [11], 2.11 µM (inactive); in assay [12] it was 1.42 µM (inactive). Besides, the GI50 in [13] was 1.87 µM (inactive); in assay [14], 3.61 µM (inactive); in assay [15] it was 29.3 µM (inactive); in assay [16] it was 3.34 µM (inactive); in assay [17] it was 7.78 µM (inactive).
